In patent publication US6858383B2, “Compositions and methods for the treatment and prevention of cardiovascular diseases and disorders, and for identifying agents therapeutic therefor” (Medlyte, Inc., priority 2000, dated 2005):
Blank lines part the entries; values can stand above or below the compound they belong to.

Legend:
Adult rat cardiomyocytes = assay: Hypoxia-induced sphingosine (SPH) production/release in cultured cardiomyocytes, HPLC of extracted sphingolipids; assay type: cell-based
Description: Adult rat cardiomyocytes were subjected to hypoxic conditions as described above and assayed for their ability to produce sphingolipid bases involved in the sphingomyelin signal transduction cascade.
Cardiomyocytes were cultured on plastic dishes that were placed in a humidified modular incubator chamber (ICN Biomedicals, Aurora, Ohio) pressurized to 0.04-0.05 psi by the particular gas mixture used in the treatment. Warm (37° C.) Tyrode's solution containing 0.2 mM BSA, ampicillin ([…]), kanamycin (100 mg/mL) and fungizone (20 μg/mL) was gassed in a 50 mL sterile conical for 15 minutes with 95%N2/5% CO2 prior to adding the solution to the cultured cells. The pO2 was monitored by a Micro pO2 System oxygen electrode (Lasar Research Labs, Los Angeles, Calif.) and found to be 4.0 PPM for the duration of the hypoxia condition. […] The pH of control and experimental cell cultures was monitored with a micro pH electrode (Beetrode pH Electrodes, Sarasota, Fla.) and remained constant at pH=7.26+/−0.02 for normoxic cells and 7.15+/−0.03 for hypoxic cells throughout the experiment. […]
The HPLC analysis was performed using a Beckman (Fullerton, Calif.) System Gold 118 Solvent Module and 507e Autosampler. A Jasco (Easton, Md.) FP-920 Intelligent Fluorescence Detector was used with an excitation wavelength of 330 nm and emission wavelength of 455 nm. […]

[1] = Fate of 3H-SPH incubated in whole blood, TLC; assay type: in vitro ADME, human
Description: Experiments were carried out to determine the fate of any SPH that might be released from cells or platelets into the extracellular compartment. Whole blood samples were incubated in vitro for up to 15 hours with ^3H-SPH, followed by thin layer chromatography (TLC) to examine which, if any, of the known metabolic products of the sphingomyelin pathway were radiolabeled as a result of metabolism of radiolabeled SPH.

cultured cardiomyocytes [2] = assay: S-1-P applied to cultured cardiomyocytes: apoptosis and calcium deregulation; assay type: cell-based, rat; conditions: S-1-P treatment of cultured cardiomyocytes
Excerpt: Exogenously applied […] is capable of activating blood platelets (Yatomi et al., J. Biol. Chem. 272:5291-5297, 1997; Yatomi et al., Blood 86:193-202, 1995). […] The first is to act on the platelets to promote the clotting response and further exacerbate the ischemia. Secondly, the platelet-derived […] acts in a paracrine fashion on neighboring endothelial and myocardial cells to promote calcium deregulation and apoptosis. On the cardiomyocytes, the consequence is to promote calcium overload. The endothelial cell response is to promote vasoconstriction and further limit the blood supply through the coronary vasculature. […] Extracellular […] is the ligand for a novel class of G protein-coupled receptors (GPCRs). Such receptors were first described as an orphan GPCRs cloned from human umbilical vein endothelial cells (Hla et al., J. Biol. Chem. 265:9308-9313, 1990; Lynch et al., Trends Pharmacol. Sci. 20:473-475, 1999). […] However, cardiac tissues are composed of diverse cell types, including endothelial cells, which have high levels of EDG-1 expression (Hla et al., J. Biol. Chem. 265:9308-9313, 1990). […] Recently a EDG-1 gene and its protein expression were determined in primary cultures of neonatal rat cardiomyocytes and in adult rat ventricular tissue (Nakajima et al., Biophysical J. 78:319 A, 2000). […]

cultured cardiomyocytes [3] = conditions: S-1-P applied to cultured cardiomyocytes; cited from earlier work
[4] = target: tumor necrosis factor alpha (TNFα) released by cultured rat cardiomyocytes (rat) (UniProt P16599); assay: cell-based or functional assay
tumor necrosis factor alpha (TNFα) released by cultured rat cardiomyocytes (rat), sequence (P16599 80-235 limits assumed): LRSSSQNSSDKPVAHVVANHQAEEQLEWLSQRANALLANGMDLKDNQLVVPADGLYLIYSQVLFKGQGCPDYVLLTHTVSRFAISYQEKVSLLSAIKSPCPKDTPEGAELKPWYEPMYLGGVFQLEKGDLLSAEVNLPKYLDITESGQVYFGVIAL

[5] = tested on: isolated perfused rat heart; assay: Langendorff rat heart model of global ischemia and reperfusion; conditions: 0.1 mM gentamicin recirculated 30 min; 40 min global ischemia; 45 min reperfusion
Description: A rat model of ischemia and reperfusion was used to evaluate the therapeutic potential of a gentamicin, an amino glycoside that inhibits sphingomyelinase.
Gentamicin vehicle solution was prepared as follows. A stock solution of 0.1 M Gentamicin was prepared by adding 70 mg of Gentamicin Sulfate (Sigma, G1264) to 1 ml of KH Buffer. KH buffer (150 ml) was combined with 150 μl)l of the stock solution to yield a 0.1 mM solution.
The protocol used was essentially that described by Sakai et al. (A device for recording left ventricular contraction and electrocardiogram in nonworking isolated perfused rat heart, Jpn J Pharmacol 28:223-9, 1978), and Zelinski et al., (Phosphatidylcholine biosynthesis in isolated hamster heart, J Biol Chem. 255:11423-8, 1980) with the exception, in the latter instance, that rat studies were used in the experiments described herein instead of hamster hearts.
In brief, rats were anesthetized and their hearts were excised. The isolated hearts were cannulated and attached to Langendorff perfusion apparatus, and perfused with KH buffer. The hearts were allowed to stabilize for 5-10 min. […]
A small hole was cut in the left atrium of each animal to expose the mitral valve. […] Left ventricular pressure was measured and recorded using the MacLab program. […]
After about 45 min., the perfusate was turned off and the ventricular pressure was no longer recorded. […]

Compound: C[N+](C)(C)C[C@H](O)CC(=O)[O-] [L-carnitine]
hypoxia-induced production of sphingosine (Adult rat cardiomyocytes; cellular model): blocks
amount of total SPH (Adult rat cardiomyocytes; pretreated 30 min prior to hypoxia (5 hours), TNFRII:Fc 0.5 ng/mL, L-carnitine 20 ng/mL, adult cardiomyocytes): significantly (p<0.01) reducing

stability in whole blood ([1]; 15-hour time course): very stable
Compound: CCCCCCCCCCCCC/C=C/[C@@H](O)[C@@H](N)COP(=O)(O)O [S-1-P, sphingosine-1-phosphate]
average calcium level combining both diastolic and systolic responses (cultured cardiomyocytes [2]): significantly increased
apoptosis of cultured cardiomyocytes (cultured cardiomyocytes [3]): resulted in apoptosis

conversion to ceramide or sphingomyelin ([1]; whole blood in vitro, up to 15 hours): not converted
conversion of 3H-SPH to 3H-S-1-P ([1]; whole blood in vitro, within 20 minutes): 86%
Compound: CCCCCCCCCCCCC/C=C/[C@@H](O)[C@@H](N)CO [^3H-SPH, D(+)-erythro-2-amino-4-trans-octadecene-1,3-diol]

Compound: TNFRII:Fc receptor fragment (from UniProt P20333 23-257) (Fc fusion)
SPH release from hypoxic cardiomyocytes after pretreatment with TNFRII:Fc [4]: 3 fold

Compound: gentamicin
ischemia and reperfusion injury (left ventricular pressure) [5]: mitigated
